# Test: Stability of cannabinoid and Vitamin E components of Beverage 1 (AB White) stored at 8° C. and 21-25° C., LCMSMS over 570 days
# Assay type: physicochemical
# Conditions: for Stability in AB White, 8° C. (content by LCMSMS): beverage stored at 8° C.; for Stability in AB White, 21-25° C. (content by LCMSMS): beverage stored at 21-25° C.
# Description: The LCMSMS was calibrated for 0-1000 ng/ml cannabinoids with the same resin material used in the preparation of the concentrates. At each time period, 100 ml of beverage was diluted with 10 ml of methanol and injected into the LCMSMS for analysis.
smiles,measurement,setting,value
"CCCCCc1cc(O)c2c(c1)OC1(C)CCC3C1C2C3(C)C (centres unmarked) [CBL, cannabicyclol]","Stability in AB White, 8° C. (content by LCMSMS)",day 0,0.550 µg/mL
same,"Stability in AB White, 8° C. (content by LCMSMS)",day 1,0.541 µg/mL
same,"Stability in AB White, 8° C. (content by LCMSMS)",day 2,0.542 µg/mL
same,"Stability in AB White, 8° C. (content by LCMSMS)",day 3,0.553 µg/mL
same,"Stability in AB White, 8° C. (content by LCMSMS)",day 5,0.552 µg/mL
same,"Stability in AB White, 8° C. (content by LCMSMS)",day 8,0.537 µg/mL
same,"Stability in AB White, 8° C. (content by LCMSMS)",day 9,0.535 µg/mL
same,"Stability in AB White, 8° C. (content by LCMSMS)",day 10,0.544 µg/mL
same,"Stability in AB White, 8° C. (content by LCMSMS)",day 11,0.544 µg/mL
same,"Stability in AB White, 8° C. (content by LCMSMS)",day 12,0.553 µg/mL
same,"Stability in AB White, 8° C. (content by LCMSMS)",day 15,0.534 µg/mL
same,"Stability in AB White, 8° C. (content by LCMSMS)",day 16,0.546 µg/mL
same,"Stability in AB White, 8° C. (content by LCMSMS)",day 17,0.540 µg/mL
same,"Stability in AB White, 8° C. (content by LCMSMS)",day 18,0.536 µg/mL
same,"Stability in AB White, 8° C. (content by LCMSMS)",day 19,0.537 µg/mL
same,"Stability in AB White, 8° C. (content by LCMSMS)",day 22,0.555 µg/mL
same,"Stability in AB White, 8° C. (content by LCMSMS)",day 23,0.545 µg/mL
same,"Stability in AB White, 8° C. (content by LCMSMS)",day 24,0.548 µg/mL
same,"Stability in AB White, 8° C. (content by LCMSMS)",day 25,0.540 µg/mL
same,"Stability in AB White, 8° C. (content by LCMSMS)",day 26,0.534 µg/mL
same,"Stability in AB White, 8° C. (content by LCMSMS)",day 29,0.547 µg/mL
same,"Stability in AB White, 8° C. (content by LCMSMS)",day 30,0.544 µg/mL
same,"Stability in AB White, 8° C. (content by LCMSMS)",day 60,0.543 µg/mL
same,"Stability in AB White, 8° C. (content by LCMSMS)",day 90,0.527 µg/mL
same,"Stability in AB White, 8° C. (content by LCMSMS)",day 120,0.534 µg/mL
same,"Stability in AB White, 8° C. (content by LCMSMS)",day 150,0.540 µg/mL
same,"Stability in AB White, 8° C. (content by LCMSMS)",day 180,0.542 µg/mL
same,"Stability in AB White, 8° C. (content by LCMSMS)",day 210,0.534 µg/mL
same,"Stability in AB White, 8° C. (content by LCMSMS)",day 240,0.535 µg/mL
same,"Stability in AB White, 8° C. (content by LCMSMS)",day 270,0.539 µg/mL
same,"Stability in AB White, 8° C. (content by LCMSMS)",day 300,0.526 µg/mL
same,"Stability in AB White, 8° C. (content by LCMSMS)",day 330,0.543 µg/mL
same,"Stability in AB White, 8° C. (content by LCMSMS)",day 360,0.533 µg/mL
same,"Stability in AB White, 8° C. (content by LCMSMS)",day 390,0.535 µg/mL
same,"Stability in AB White, 8° C. (content by LCMSMS)",day 420,0.526 µg/mL
same,"Stability in AB White, 8° C. (content by LCMSMS)",day 450,0.532 µg/mL
same,"Stability in AB White, 8° C. (content by LCMSMS)",day 480,0.521 µg/mL
same,"Stability in AB White, 8° C. (content by LCMSMS)",day 510,0.514 µg/mL
same,"Stability in AB White, 8° C. (content by LCMSMS)",day 540,0.514 µg/mL
same,"Stability in AB White, 8° C. (content by LCMSMS)",day 570,0.503 µg/mL
same,"Stability in AB White, 21-25° C. (content by LCMSMS)",day 0,0.550 µg/mL
same,"Stability in AB White, 21-25° C. (content by LCMSMS)",day 1,0.539 µg/mL
same,"Stability in AB White, 21-25° C. (content by LCMSMS)",day 2,0.540 µg/mL
same,"Stability in AB White, 21-25° C. (content by LCMSMS)",day 3,0.543 µg/mL
same,"Stability in AB White, 21-25° C. (content by LCMSMS)",day 5,0.530 µg/mL
same,"Stability in AB White, 21-25° C. (content by LCMSMS)",day 8,0.542 µg/mL
same,"Stability in AB White, 21-25° C. (content by LCMSMS)",day 9,0.535 µg/mL
same,"Stability in AB White, 21-25° C. (content by LCMSMS)",day 10,0.546 µg/mL
same,"Stability in AB White, 21-25° C. (content by LCMSMS)",day 11,0.552 µg/mL
same,"Stability in AB White, 21-25° C. (content by LCMSMS)",day 12,0.529 µg/mL
same,"Stability in AB White, 21-25° C. (content by LCMSMS)",day 15,0.548 µg/mL
same,"Stability in AB White, 21-25° C. (content by LCMSMS)",day 16,0.537 µg/mL
same,"Stability in AB White, 21-25° C. (content by LCMSMS)",day 17,0.554 µg/mL
same,"Stability in AB White, 21-25° C. (content by LCMSMS)",day 18,0.554 µg/mL
same,"Stability in AB White, 21-25° C. (content by LCMSMS)",day 19,0.552 µg/mL
same,"Stability in AB White, 21-25° C. (content by LCMSMS)",day 22,0.547 µg/mL
same,"Stability in AB White, 21-25° C. (content by LCMSMS)",day 23,0.530 µg/mL
same,"Stability in AB White, 21-25° C. (content by LCMSMS)",day 24,0.546 µg/mL
same,"Stability in AB White, 21-25° C. (content by LCMSMS)",day 25,0.532 µg/mL
same,"Stability in AB White, 21-25° C. (content by LCMSMS)",day 26,0.549 µg/mL
same,"Stability in AB White, 21-25° C. (content by LCMSMS)",day 29,0.552 µg/mL
same,"Stability in AB White, 21-25° C. (content by LCMSMS)",day 30,0.543 µg/mL
same,"Stability in AB White, 21-25° C. (content by LCMSMS)",day 60,0.544 µg/mL
same,"Stability in AB White, 21-25° C. (content by LCMSMS)",day 90,0.541 µg/mL
same,"Stability in AB White, 21-25° C. (content by LCMSMS)",day 120,0.516 µg/mL
same,"Stability in AB White, 21-25° C. (content by LCMSMS)",day 150,0.517 µg/mL
same,"Stability in AB White, 21-25° C. (content by LCMSMS)",day 180,0.527 µg/mL
same,"Stability in AB White, 21-25° C. (content by LCMSMS)",day 210,0.514 µg/mL
same,"Stability in AB White, 21-25° C. (content by LCMSMS)",day 240,0.515 µg/mL
same,"Stability in AB White, 21-25° C. (content by LCMSMS)",day 270,0.535 µg/mL
same,"Stability in AB White, 21-25° C. (content by LCMSMS)",day 300,0.532 µg/mL
same,"Stability in AB White, 21-25° C. (content by LCMSMS)",day 330,0.526 µg/mL
same,"Stability in AB White, 21-25° C. (content by LCMSMS)",day 360,0.526 µg/mL
same,"Stability in AB White, 21-25° C. (content by LCMSMS)",day 390,0.518 µg/mL
same,"Stability in AB White, 21-25° C. (content by LCMSMS)",day 420,0.523 µg/mL
same,"Stability in AB White, 21-25° C. (content by LCMSMS)",day 450,0.521 µg/mL
same,"Stability in AB White, 21-25° C. (content by LCMSMS)",day 480,0.510 µg/mL
same,"Stability in AB White, 21-25° C. (content by LCMSMS)",day 510,0.503 µg/mL
same,"Stability in AB White, 21-25° C. (content by LCMSMS)",day 540,0.510 µg/mL
same,"Stability in AB White, 21-25° C. (content by LCMSMS)",day 570,0.505 µg/mL

# Source: patent US20240415914A1, “Water Dispersible Cannabinoid Compositions” (priority 2021, published 2024)
